Results published in patent US20210300924A1, “5-[6-[[3-(4,5,6,7-TETRAHYDROPYRAZOLO[4,3-C]PYRIDIN-1-YL)AZETIDIN-1-YL]METHYL]MORPHOLIN-4-YL]QUINOLINE-8-CARBONITRILE DERIVATIVES AND SIMILAR COMPOUNDS AS TLR7-9 ANTAGONISTS FOR TREATING SYSTEMIC LUPUS ERYTHEMATOSUS” (Hoffmann-La Roche Inc., priority 2018, published 2021).
Marks after values point to notes of the source that are not given here.

How the values were obtained:
[1] = Human microsome stability assay; format: in vitro ADME; conditions: 1 μM test compound, 0.5 mg/mL liver microsomal protein, 37° C., up to 30 minutes; 6.2 = detection limit
Experimental: Human Microsome Stability Assay
The human microsomal stability assay is used for early assessment of metabolic stability of a test compound in human liver microsomes.
Human liver microsomes (Cat. NO.: 452117, Corning, USA; Cat. NO.:H2610, Xenotech, USA) were preincubated with test compound for 10 minutes at 37° C. in 100 mM potassium phosphate buffer, pH 7.4. The reactions were initiated by adding NADPH regenerating system. The final incubation mixtures contained 1 μM test compound, 0.5 mg/mL liver microsomal protein, 1 mM MgCl2, 1 mM NADP, 1 unit/mL isocitric dehydrogenase and 6 mM isocitric acid in 100 mM potassium phosphate buffer, pH 7.4. After incubation times of 0, 3, 6, 9, 15 and 30 minutes at 37° C., 300 μL of cold acetonitrile (including internal standard) was added to 100 μL incubation mixture to terminate the reaction. Following precipitation and centrifugation, the amount of compound remaining in the samples were determined by LC-MS/MS. Controls of no NADPH regenerating system at zero and 30 minutes were also prepared and analyzed.

human TLR8 = target: T1, human TLR8 (Homo sapiens, UniProt Q9NR97); experiment: HEK293-Blue-hTLR-8 cells assay; format: cell-based; conditions: HEK293-Blue-hTLR8 cells, R848 stimulation, 20 hrs, SEAP reporter; read-out: HEK/hTLR8 IC50
T1 construct: host or cells: HEK293 (HEK-Blue hTLR8)
T1 sequence (Q9NR97 27-1041): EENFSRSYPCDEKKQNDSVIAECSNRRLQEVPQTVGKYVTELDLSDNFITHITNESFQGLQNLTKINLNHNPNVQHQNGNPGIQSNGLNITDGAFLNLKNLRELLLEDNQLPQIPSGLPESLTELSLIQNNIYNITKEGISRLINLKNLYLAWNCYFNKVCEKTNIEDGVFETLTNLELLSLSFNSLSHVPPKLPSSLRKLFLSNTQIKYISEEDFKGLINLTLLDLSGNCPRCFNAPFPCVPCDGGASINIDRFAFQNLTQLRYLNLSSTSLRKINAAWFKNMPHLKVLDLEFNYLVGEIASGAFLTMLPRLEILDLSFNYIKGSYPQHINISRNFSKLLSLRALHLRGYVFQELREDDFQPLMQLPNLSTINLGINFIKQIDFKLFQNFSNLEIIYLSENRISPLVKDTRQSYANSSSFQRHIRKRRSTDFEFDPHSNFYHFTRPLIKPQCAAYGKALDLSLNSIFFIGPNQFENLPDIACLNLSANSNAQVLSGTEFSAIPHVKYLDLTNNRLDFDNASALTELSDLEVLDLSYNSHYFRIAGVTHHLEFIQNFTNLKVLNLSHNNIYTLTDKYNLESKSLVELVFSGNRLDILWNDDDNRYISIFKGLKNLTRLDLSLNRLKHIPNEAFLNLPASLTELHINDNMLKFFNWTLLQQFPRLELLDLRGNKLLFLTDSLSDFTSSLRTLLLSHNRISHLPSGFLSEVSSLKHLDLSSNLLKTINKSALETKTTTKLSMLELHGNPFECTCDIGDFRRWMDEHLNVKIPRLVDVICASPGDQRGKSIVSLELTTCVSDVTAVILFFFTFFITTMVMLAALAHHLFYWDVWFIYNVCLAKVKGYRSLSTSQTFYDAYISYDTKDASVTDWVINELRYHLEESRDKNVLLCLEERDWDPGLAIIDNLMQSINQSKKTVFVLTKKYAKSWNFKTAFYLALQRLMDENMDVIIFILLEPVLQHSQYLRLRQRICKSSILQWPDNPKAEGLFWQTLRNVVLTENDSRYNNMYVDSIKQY
From the text: A stable HEK293-Blue-hTLR-8 cell line was purchased from InvivoGen (Cat. #: hkb-htlr8, San Diego, Calif., USA). These cells were originally designed for studying the stimulation of human TLR8 by monitoring the activation of NF-κB. A SEAP (secreted embryonic alkaline phosphatase) reporter gene was placed under the control of the IFN-β minimal promoter fused to five NF-κB and AP-1-binding sites. The SEAP was induced by activating NF-κB and AP-1 via stimulating HEK-Blue hTLR8 cells with TLR8 ligands. Therefore the reporter expression was declined by TLR8 antagonist under the stimulation of a ligand, such as R848, for incubation of 20 hrs. The cell culture supernatant SEAP reporter activity was determined using QUANTI-Blue™ kit (Cat. #: rep-qb1, Invivogen, San Diego, Ca, USA) at a wavelength of 640 nm, a detection medium that turns purple or blue in the presence of alkaline phosphatase.
HEK293-Blue-hTLR8 cells were incubated at a density of 250,000-450,000 cells/mL in a volume of 170 μL in a 96-well plate in Dulbecco's Modified Eagle's medium (DMEM) containing 4.5 g/L glucose, 50 U/mL penicillin, […], […], 2 mM L-glutamine, 10% (v/v) heat-inactivated fetal bovine serum with addition of 20 μL test compound in a serial dilution in the presence of final DMSO at 1% and 10 μL of 60 uM R848 in above DMEM, perform incubation under 37° C. in a CO2 incubator for 20 hrs. Then 20 μL of the supernatant from each well was incubated with […] Quanti-blue substrate solution at 37° C. for 2 hrs and the absorbance was read at 620-655 nm using a spectrophotometer. The signaling pathway that TLR8 activation leads to downstream NF-κB activation has been widely accepted, and therefore similar reporter assay was modified for evaluating TLR8 antagonist.

Row | SMILES | Clearance of Human microsome [1] | IC50 (human TLR8) [nM]
1 | C[C@@H]1CN(c2ccc(C#N)c3ncccc23)C[C@H](CN2CC(n3ncc4c3CCN[C@H]4C)C2)O1 [Example 22, 5-[(2R,6S)-2-methyl-6-[[3-[(4S)-4-methyl-4,5,6,7-tetrahydropyrazolo[4,3-c]pyridin-1-yl]azetidin-1-yl]methyl]morpholin-4-yl]quinoline-8-carbonitrile] | 6.2 mL/min/kg | 37
2 | C[C@@H]1CN(c2ccc(C#N)c3ncccc23)C[C@H](CN2CC(n3cc4c(n3)CCN[C@H]4C)C2)O1 [Example 23, 5-[(2R,6S)-2-methyl-6-[[3-[(4S)-4-methyl-4,5,6,7-tetrahydropyrazolo[4,3-c]pyridin-2-yl]azetidin-1-yl]methyl]morpholin-4-yl]quinoline-8-carbonitrile] | 6.2 mL/min/kg | 44
3 | C[C@@H]1CN(c2ccc(C#N)c3ncccc23)C[C@H](CN2CC(n3ncc4c3CCNC4)C2)O1 [Example 1, 5-[(2R,6S)-2-methyl-6-[[3-(4,5,6,7-tetrahydropyrazolo[4,3-c]pyridin-1-yl)azetidin-1-yl]methyl]morpholin-4-yl]quinoline-8-carbonitrile] | 6.2* mL/min/kg | 17
4 | C[C@@H]1Cc2cnn(C3CN(C[C@H]4CN(c5ccc(C#N)c6ncccc56)C[C@@H](C)O4)C3)c2CN1 (single isomer, unassigned) [Example 28] | 6.2 mL/min/kg | 10
5 | C[C@@H]1CN(c2ccc(C#N)c3ncccc23)C[C@H](CN2CC(n3ncc4c3C[C@H](C)NC4)C2)O1 [Example 18, 5-[(2R,6S)-2-methyl-6-[[3-[(6S)-6-methyl-4,5,6,7-tetrahydropyrazolo[4,3-c]pyridin-1-yl]azetidin-1-yl]methyl]morpholin-4-yl]quinoline-8-carbonitrile] | 7.0 mL/min/kg | 19
6 | Cc1nn(C2CN(C[C@H]3CN(c4ccc(C#N)c5ncccc45)C[C@@H](C)O3)C2)c2c1CCNC2 [Example 42, 5-[(2R,6S)-2-methyl-6-[[3-(3-methyl-4,5,6,7-tetrahydropyrazolo[3,4-c]pyridin-1-yl)azetidin-1-yl]methyl]morpholin-4-yl]quinoline-8-carbonitrile] | 7.1 mL/min/kg | 18
7 | C[C@@H]1CN(c2ccc(C#N)c3ncccc23)C[C@H](CN2CC(n3cc4c(n3)CN(C)CC4)C2)O1 [Example 5, 5-[(2R,6S)-2-methyl-6-[[3-(6-methyl-5,7-dihydro-4H-pyrazolo[3,4-c]pyridin-2-yl)azetidin-1-yl]methyl]morpholin-4-yl]quinoline-8-carbonitrile] | 6.2 mL/min/kg | 6
